Series [1] has as its system Human immunodeficiency virus 2. The series can be described thus: Antiviral activity against HIV2 ROD infected in human CEM-SS cells assessed as inhibition of virus-induced cytopathic effect by XTT assay. It counts as functional, organism-based, ISOLATE ROD. (In general: Protection from cytopathic effect is a common read-out in antiviral testing.)
Series [2] is described as follows: Therapeutic index, ratio of TC50 for human CEM-SS cells to EC50 for HIV1 RF infected in human CEM-SS cells. In kind it is cell-based. The following applies: read-out: TI.
Series [3] in a line: Therapeutic index, ratio of TC50 for human CEM-SS cells to EC50 for HIV2 ROD infected in human CEM-SS cells. In kind it is cell-based. The following applies: for selectivity ratio: CEM-SS cells, read-out: TI; for TI: cem-ss.
The target of series [4] is Human immunodeficiency virus type 1 reverse transcriptase (Human immunodeficiency virus 1, UniProt Q72547). The series can be described thus: Inhibition of wild type HIV1 reverse transcriptase assessed as 32P-labeled GMP incorporation into nascent DNA strand.
Series [5] has as its target Human immunodeficiency virus type 1 reverse transcriptase (Human immunodeficiency virus 1, UniProt Q72547, K103N). The series can be described thus: Inhibition of HIV1 reverse transcriptase K103N mutant assessed as 32P-labeled GMP incorporation into nascent DNA strand.
Series [6] has as its system Human immunodeficiency virus 1. Put plainly: Antiviral activity against HIV1 infected in human HeLa cells expressing CD4-LTR assessed as inhibition of viral entry-related beta galactosidase expression treated for 2 hrs followed by drug wash out measured after 48 hrs by MAGI assay. It counts as functional, organism-based. The following applies: Human immunodeficiency virus 1, HeLa.

Series [7] can be described thus: Cytotoxicity against human HeLa cells expressing CD4-LTR by XTT assay. It counts as cell-based. The following applies: read-out: TC50 (the source's name).
A short description of series [8]: Therapeutic index, ratio of TC50 human HeLa cells expressing CD4-LTR to EC50 for HIV1 entry inhibition in human HeLa cells expressing CD4-LTR. The following applies: read-out: TI. In kind it is cell-based.
Series [9] deals with Human immunodeficiency virus 1. Put plainly: Antiviral activity against HIV1 infected in human CEM-SS cells assessed as inhibition of viral replication and virus-induced cytopathic effect by dose-response curve analysis. In kind it is functional. The following applies: Human immunodeficiency virus 1, CEM-SS.
In series [10] the test system is Human immunodeficiency virus 2. Put plainly: Inhibition of HIV2 reverse transcriptase.
The test system of series [11] is Human immunodeficiency virus 2. The series can be described thus: Antiviral activity against HIV2 assessed as inhibition of viral single round replication at early time point. It counts as functional, organism-based.
Series [12] has as its system Human immunodeficiency virus 2. Put plainly: Antiviral activity against HIV2 assessed as inhibition of viral replication treated at time points after viral entry into host cells. It counts as functional, organism-based.
For series [13], the system named is Human immunodeficiency virus 2. The series can be described thus: Inhibition of HIV2 reverse transcriptase assessed as 32P-labeled GMP incorporation into nascent DNA strand at highest concentration.
Series [14] concerns Human immunodeficiency virus 1. Put plainly: Antiviral activity against HIV1 RF infected in human CEM-SS cells assessed as inhibition of virus-induced cytopathic effect by XTT assay. In kind it is functional, organism-based. The following applies: Human immunodeficiency virus 1, RF.
Series [15] can be described thus: Cytotoxicity against human CEM-SS cells by XTT assay. It counts as cell-based. The following applies: read-out: TC50 (the source's name). In general terms: Formazan colour is commonly taken as a measure of viable cells.
Setting [16] is: Human immunodeficiency virus 2, ISOLATE ROD, CEM-SS, read-out: EC50.

Each structure is given as a SMILES string. The source made the active and inactive calls. Where only a bound is given, the exact number is not on record here.

The EC50 is the concentration giving half of the maximal effect. One may read the IC50 as the midpoint of a concentration-inhibition curve. As usually defined, the EC99 is the concentration needed for an effect of 99%. In the case of `CCc1c(Oc2ccccc2)n(CC2CC=CC2)c(=O)[nH]c1=O`, the EC50 was 32 µM in series [1] (setting [16]), 0.15 µM in series [6] and 0.61 µM in [14]. Further, the values for the selectivity ratio in series [2], in series [3] and in series [8] were 127, 2.4 and 527, respectively. Moreover, the IC50 in series [4] was determined as 2.62 µM; in [5], 48.3 µM. Moreover, the CC50 in series [7] amounted to 76.9 µM; in [15] it was 76.2 µM. Besides, the EC99 in series [9] amounted to 1 µM. Further, the result in series [10], in [12] and in [13] was inactive. The outcome in series [11] was Active.

In the case of `CCc1c(Sc2cc(C)cc(C)c2)n(CC2CCCCC2)c(=O)[nH]c1=O`, the EC50 stood at 26.9 µM in series [1] (setting [16]), 0.05 µM in [6] and 0.134 µM in series [14]. Besides, the selectivity ratio in series [2] stood at 534; in series [3] it was 2.7; in [8] it was 1320. In addition, the half-inhibitory concentration (IC50) in [4] is 0.152 µM; in [5], above 268 µM. Besides, the CC50 in series [7] and in series [15] was 71.7 µM each time. In series [9], the EC99 is 1 µM. Further, the result in [10], in [12] and in [13] was inactive. Besides, the result in series [11] was Active.

For `Cc1cc(C)cc(C(=O)c2c(C(C)C)c(=O)[nH]c(=O)n2Cc2ccccc2)c1`, the half-maximal effective concentration (EC50) in [1] (setting [16]) is 0.1 µM; in series [6] it was 0.03 µM; in series [14], 0.027 µM. For the same compound, the selectivity ratio in [2] stood at 840; in [3] it was 223; in [8], 726. The IC50 in series [4] was 0.011 µM; in [5], 1.4 µM. Also, the CC50 in series [7] stood at 20.1 µM; in series [15], 17.8 µM. In addition, in [9], the EC99 was determined as 1 µM. Also, the outcome in series [10], in series [12] and in series [13] was inactive. Besides, the result in series [11] was Active.

On to `CCc1c(Sc2cc(C)cc(C)c2)n(CC2=CCCC2)c(=O)[nH]c1=O`, for which the EC50 in series [1] (setting [16]) is 2 µM; in [6], 0.009 µM; in series [14], 0.056 µM. Further, the selectivity ratio in series [2] worked out at 15800; in series [3] it was 451; in series [8] it was 104000. For the same compound, the half-inhibitory concentration (IC50) stood at 0.138 µM in series [4] and 66.8 µM in series [5]. In addition, the CC50 in [7] and in series [15] was 887 µM each time. The EC99 in series [9] is 1 µM. Moreover, the outcome in series [10], in [12] and in series [13] was inactive. Also, the outcome in series [11] was Active.

For `Cc1cc(C)cc(Sc2c(C(C)C)c(=O)[nH]c(=O)n2CCC2CCCC2)c1`, the figures for the half-maximal effective concentration (EC50) entry in [1] (cem-ss), in series [6] and in [14] were “Not Active”, 1.28 µM and 0.15 µM, respectively. In addition, the selectivity ratio was 92 in series [2] and 12 in series [8]. Also, in series [3], the TI result was “Not Active”. In addition, the IC50 in [4] came to 0.233 µM; in series [5], 205 µM. The CC50 stood at 15.4 µM in [7] and 14.2 µM in series [15]. For the same compound, in series [9], the EC99 came out at 1 µM. Further, the outcome in [10], in [12] and in series [13] was inactive. In addition, the outcome in [11] was Active.

For the compound `Cc1cc(C)cc(Oc2c(C(C)C)c(=O)[nH]c(=O)n2CC2CC=CC2)c1`, the EC50 in [1] (setting [16]) was determined as 18.2 µM; in series [6], 0.09 µM; in series [14], 0.015 µM. Besides, the selectivity ratio in series [2] is 12900; in series [3], 11; in series [8], 2340. The 50% inhibitory concentration (IC50) in series [4] turned out to be 0.256 µM; in series [5] it was 1.9 µM. Moreover, the CC50 in series [7] and in [15] was 200 µM throughout. Also, the EC99 in [9] came out at 1 µM. Besides, the result in series [10], in series [12] and in series [13] was inactive. Also, the result in [11] was Active.

On to `Cc1cc(C)cc(C(=O)c2c(C(C)C)c(=O)[nH]c(=O)n2CC2CCCCC2)c1`, for which the figures for the half-maximal effective concentration (EC50) in series [1] (setting [16]), in [6] and in series [14] were 0.7 µM, 0.24 µM and 0.0052 µM, respectively. In addition, the selectivity ratio in series [2] is 8550; in series [3], 23.8; in series [8], 127. Moreover, the IC50 in [4] worked out at 0.008 µM; in series [5] it was 16.5 µM. Also, the CC50 turned out to be 30.4 µM in series [7] and 16.2 µM in series [15]. In addition, the EC99 in series [9] is 1 µM. Also, the result in series [10], in series [12] and in series [13] was inactive. Moreover, the result in series [11] was Active.

For `CCc1c(C(=O)c2cc(C)cc(C)c2)n(CC2CCC2)c(=O)[nH]c1=O`, the figures for the 50% effective concentration (EC50) in [1] (setting [16]), in series [6] and in [14] were 4.5 µM, 0.06 µM and 0.014 µM, respectively. Moreover, the figures for the selectivity ratio in series [2], in [3] and in series [8] were 60700, 190 and 14500, respectively. For the same compound, the IC50 worked out at 2.4 µM in [4] and 4.38 µM in series [5]. Moreover, the CC50 in series [7] and in [15] was 850 µM throughout. For the same compound, the EC99 in [9] is 1 µM. In addition, the outcome in series [10], in series [12] and in [13] was inactive. Besides, in [11], the outcome was Active.

In the case of `CCc1c(Oc2cc(C)cc(C)c2)n(CCC2CCCC2)c(=O)[nH]c1=O`, the concentration for a half-maximal effect (EC50) entry is “Not Active” in [1] (cem-ss), 2.35 µM in [6] and 1.49 µM in [14]. The selectivity ratio was found to be 57 in series [2] and 24 in series [8]. Moreover, the TI result in series [3] is reported as “Not Active”. The half-maximal inhibitory concentration (IC50) in series [4] worked out at 0.549 µM; in series [5], 6.4 µM. Besides, the values for the CC50 in [7] and in series [15] were 55.9 µM and 27 µM, respectively. Also, the EC99 in series [9] was 1 µM. In addition, the outcome in series [10], in series [12] and in [13] was inactive. The result in [11] was Active.

For the compound `CCc1c(Oc2cc(C)cc(C)c2)n(CC2=CCCC2)c(=O)[nH]c1=O`, the concentration for a half-maximal effect (EC50) in series [1] (setting [16]) was determined as 1.3 µM; in [6], 0.009 µM; in series [14] it was 0.016 µM. Moreover, the selectivity ratio was found to be 4080 in [2], 47.6 in [3] and 7280 in series [8]. The half-maximal inhibitory concentration (IC50) worked out at 0.122 µM in series [4] and 0.22 µM in series [5]. Besides, the CC50 in series [7] and in series [15] was 62.9 µM in each case. In [9], the 99% effect concentration (EC99) was found to be 1 µM. In addition, the outcome in [10], in [12] and in series [13] was inactive. In addition, in [11], the result was Active.

Regarding `Cc1cc(C)cc(Sc2c(C(C)C)c(=O)[nH]c(=O)n2CCC2=CCCC2)c1`, the concentration giving a half-maximal response (EC50) result was “Not Active” in series [1] (cem-ss), 0.011 µM in [6] and 0.94 µM in series [14]. Besides, the selectivity ratio was 26 in [2] and 1990 in [8]. The TI result in series [3] is reported as “Not Active”. For the same compound, the 50% inhibitory concentration (IC50) is 2.36 µM in series [4] and above 260 µM in series [5]. Besides, the CC50 in series [7] came to 21.6 µM; in series [15], 19.3 µM. Besides, the concentration for an effect of 99% (EC99) in series [9] was 1 µM. The outcome in [10], in series [12] and in [13] was inactive. For the same compound, the result in series [11] was Active.

Take `CCc1c(Oc2cc(C)cc(C)c2)n(CCC2CC=CC2)c(=O)[nH]c1=O`: the concentration for a half-maximal effect (EC50) was 1.5 µM in series [1] (setting [16]), 1.95 µM in series [6] and 0.23 µM in [14]. For the same compound, the figures for the selectivity ratio in series [2], in series [3] and in series [8] were 4870, above 734 and 570, respectively. The IC50 in series [4] came to 1.14 µM; in series [5], 9.8 µM. Also, the CC50 in [7] is 1110 µM; in [15], 1100 µM. The concentration for an effect of 99% (EC99) in [9] came out at 1 µM. For the same compound, the result in series [10], in series [12] and in series [13] was inactive. Moreover, in [11], the result was Active.
